Assay results from publication PMC10797628.
“And” between values parts separate entries of the source, which are not always exact repeats. Equal entries are not always repeated. Where two headings read alike, the source gives them in different places.

Experiments:
[1] = molecular target: T1, T7.39N 5-HT1D receptor (Homo sapiens, UniProt P28221, T342N); test: cAMP accumulation in HEK293T cells, T7.39N 5-HT1D; format: cell-based; design: host or cells: HEK293T; conditions: point-mutated receptor, 3 independent experiments, read-out: pEC50 5-HT1D Receptor N7.39T (converted)
Procedure: (§1) Briefly, cells transfected with the desired receptor construct and compounds were incubated in the dark for 90 min at 37 °C. After incubation, cAMP detection reagents were added, and TR-FRET was used to quantify the cAMP produced.
(§2) The functional activity of compounds was determined by stimulating cells expressing the desired receptor with FSK and test compound in parallel with 12 known concentrations of cAMP. The known concentrations of cAMP were used to create a standard curve for each experiment that was used to interpolate the unknown values of cAMP in wells with test compounds. […] The EC50 and EMAX values were determined using the “dose response – log[agonist] vs response (three parameter)” nonlinear regression model in Prism and transformed to pEC50 values, reported as mean ± SD.
(§3) Cell Type Receptor Cell Density [Forskolin] Incubation time
(§4) Summary of functional assay conditions at various 5-HT1 receptor point mutation constructs.

[2] = molecular target: T2, human 5-HT1B receptor (Homo sapiens, UniProt P28222); test: Radioligand binding (saturation and competition), WT 5-HT1B; conditions: for higher affinity at 5-HT1B over 5-HT1A receptors: affinity ratio
T2 construct: host or cells: HEK293T

[3] = molecular target: T3, Y5.38F 5-HT1B receptor (Homo sapiens, UniProt P28222, Y208F); test: Radioligand binding, Y5.38F 5-HT1B; conditions: read-out: pKi 5-HT1B Receptor Y5.38F (converted)
T3 construct: host or cells: HEK293T

[4] = molecular target: T1, T7.39N 5-HT1D receptor; test: Radioligand binding, T7.39N 5-HT1D
Procedure: (§5) 48 hours after transfection with the desired receptor construct, cells were isolated for saturation and competition binding assays as previously described.[47],[48],[57] Saturation and competition radioligand binding assays were conducted in an assay buffer consisting of 50 mM Tris HCl, 10 mM MgCl2, and 0.1 mM EDTA in filtered deionized water. […] Briefly, 5–10 μg of the receptor protein, as determined by a Thermo Fisher Pierce BCA protein assay kit, was incubated with 8 concentrations of radioligand in triplicate to determine total binding. […] Nonspecific binding was determined as above for saturation assays.
(§6) For radioligand binding data, nonspecific binding was subtracted from the total binding to get specific binding. Saturation binding data was fit to the “binding saturation-specific binding with hill slope” model. Competition binding data were fit to the “binding competition-one-site fit Ki” non-linear regression model and transformed to pKi values, reported as mean ± SD.
(§7) is 50 mM Tris HCl, 10 mM MgCl2 and 0.1 mM EDTA in filtered deionized water.

[5] = molecular target: T4, Y5.38F 5-HT1D receptor (Homo sapiens, UniProt P28221, Y197F); test: Radioligand binding, Y5.38F 5-HT1D
Procedure: as §5, §6, §7

[6] = molecular target: T5, human 5-HT1A receptor (Homo sapiens, UniProt P08908); test: cAMP accumulation (LANCE Ultra TR-FRET) in HEK293T cells, WT 5-HT1A; format: cell-based; conditions: for Emax: HEK-293T; for EC50: cAMP accumulation, HEKt cells, mean ± SD
T5 construct: host or cells: HEK293T
T5 sequence (P08908 1-422): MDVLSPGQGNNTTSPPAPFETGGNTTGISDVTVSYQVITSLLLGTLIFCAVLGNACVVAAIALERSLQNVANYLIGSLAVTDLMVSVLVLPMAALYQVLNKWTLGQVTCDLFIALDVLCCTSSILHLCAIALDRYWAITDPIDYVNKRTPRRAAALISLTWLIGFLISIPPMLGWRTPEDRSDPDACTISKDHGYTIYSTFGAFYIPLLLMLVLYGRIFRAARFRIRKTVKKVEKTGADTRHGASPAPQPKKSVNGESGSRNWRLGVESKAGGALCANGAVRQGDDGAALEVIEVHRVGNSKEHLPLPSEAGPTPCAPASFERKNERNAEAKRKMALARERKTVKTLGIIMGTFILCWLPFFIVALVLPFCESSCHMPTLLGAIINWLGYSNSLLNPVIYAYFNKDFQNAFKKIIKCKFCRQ
Procedure: as §1, §2, §4

[7] = molecular target: T7.39N 5-HT1B receptor (Homo sapiens, UniProt P28222, T355N); test: Radioligand binding, T7.39N 5-HT1B
Procedure: as §5, §6, §7

[8] = molecular target: V45.52I 5-HT1B receptor (Homo sapiens, UniProt P28222, V201I); test: Radioligand binding, V45.52I 5-HT1B
Procedure: as §5, §6, §7

[9] = molecular target: S5.42A 5-HT1D receptor (Homo sapiens, UniProt P28221, S201A); test: Radioligand binding, S5.42A 5-HT1D
Procedure: as §5, §6, §7

[10] = molecular target: T4, Y5.38F 5-HT1D receptor; test: cAMP accumulation in HEK293T cells, Y5.38F 5-HT1D; format: cell-based; design: host or cells: HEK293T; conditions: point-mutated receptor, 3 independent experiments, read-out: pEC50 5-HT1D Receptor Y5.38F (converted)
Procedure: as §1, §2, §4

[11] = molecular target: T6, Y5.38A 5-HT1D receptor (Homo sapiens, UniProt P28221, Y197A); test: Radioligand binding, Y5.38A 5-HT1D
Procedure: as §5, §6, §7

[12] = molecular target: S5.42A 5-HT1B receptor (Homo sapiens, UniProt P28222, S212A); test: Radioligand binding, S5.42A 5-HT1B
Procedure: as §5, §6, §7

[13] = molecular target: T7, V45.52I 5-HT1D receptor (Homo sapiens, UniProt P28221, V190I); test: Radioligand binding, V45.52I 5-HT1D
Procedure: as §5, §6, §7

[14] = molecular target: T2, human 5-HT1B receptor; test: cAMP accumulation (LANCE Ultra TR-FRET) in HEK293T cells, WT 5-HT1B; format: cell-based; conditions: for EC50: cAMP accumulation, HEKt cells, mean ± SD; for Emax: HEK-293T
Procedure: as §1, §2, §4

[15] = molecular target: T6, Y5.38A 5-HT1D receptor; test: cAMP accumulation in HEK293T cells, Y5.38A 5-HT1D; format: cell-based; design: host or cells: HEK293T; conditions: point-mutated receptor, 3 independent experiments, read-out: pEC50 5-HT1D Receptor Y5.38A (converted)
Procedure: as §1, §2, §4

[16] = molecular target: T7, V45.52I 5-HT1D receptor; test: cAMP accumulation in HEK293T cells, V45.52I 5-HT1D; format: cell-based; design: host or cells: HEK293T; conditions: point-mutated receptor, 3 independent experiments, read-out: pEC50 5-HT1D Receptor V45.52I (converted)
Procedure: as §1, §2, §3, §4

[17] = molecular target: T3, Y5.38F 5-HT1B receptor; test: cAMP accumulation in HEK293T cells, Y5.38F 5-HT1B; format: cell-based; conditions: point-mutated receptor, 3 independent experiments, read-out: pEC50 5-HT1B Receptor Y5.38F (converted)
Procedure: as §1, §2, §3, §4

[18] = molecular target: T8, human 5-HT1D receptor (Homo sapiens, UniProt P28221); test: cAMP accumulation (LANCE Ultra TR-FRET) in HEK293T cells, WT 5-HT1D; format: cell-based; conditions: for Emax: HEK-293T; for higher functional potency at 5-HT1D over 5-HT1A receptors: cAMP potency ratio; for EC50: cAMP accumulation, HEKt cells, mean ± SD
T8 construct: host or cells: HEK293T
Procedure: as §1, §2, §4

[19] = read-out: 5-HT1A EMAX (%), WT receptor, normalized to basal (0%) and 10 μM 5-CT (100%)
[20] = read-out: 5-HT1B EMAX (%), WT receptor, normalized to basal (0%) and 10 μM 5-CT (100%)
[21] = read-out: 5-HT1D EMAX (%), WT receptor, normalized to basal (0%) and 10 μM 5-CT (100%)

T7 sequence (P28221 whole entry V190I): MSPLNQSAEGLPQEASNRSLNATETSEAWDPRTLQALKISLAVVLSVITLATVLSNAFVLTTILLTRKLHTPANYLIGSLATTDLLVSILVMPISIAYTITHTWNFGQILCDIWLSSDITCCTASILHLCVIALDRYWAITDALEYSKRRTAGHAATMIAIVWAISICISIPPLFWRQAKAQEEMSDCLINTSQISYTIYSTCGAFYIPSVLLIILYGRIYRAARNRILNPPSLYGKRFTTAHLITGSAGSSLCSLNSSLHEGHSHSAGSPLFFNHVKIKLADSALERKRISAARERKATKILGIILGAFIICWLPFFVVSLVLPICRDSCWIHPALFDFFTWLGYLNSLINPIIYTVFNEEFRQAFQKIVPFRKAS
Chain of S5.42A 5-HT1B receptor (P28222 whole entry S212A): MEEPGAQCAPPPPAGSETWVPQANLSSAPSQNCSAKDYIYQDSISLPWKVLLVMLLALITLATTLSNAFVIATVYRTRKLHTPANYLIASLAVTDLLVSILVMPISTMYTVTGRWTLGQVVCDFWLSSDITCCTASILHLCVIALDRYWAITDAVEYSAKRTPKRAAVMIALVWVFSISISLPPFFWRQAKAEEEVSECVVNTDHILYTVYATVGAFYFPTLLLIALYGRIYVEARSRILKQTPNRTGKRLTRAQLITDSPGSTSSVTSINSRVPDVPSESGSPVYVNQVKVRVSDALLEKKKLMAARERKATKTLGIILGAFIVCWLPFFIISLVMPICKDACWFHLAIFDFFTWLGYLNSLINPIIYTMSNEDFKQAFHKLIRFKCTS
T1 sequence (P28221 whole entry T342N): as the sequence (P28221 whole entry V190I) above, with I190V, T342N counted along it
T6 sequence (P28221 whole entry Y197A): as the sequence (P28221 whole entry V190I) above, with I190V, Y197A counted along it
T4 sequence (P28221 whole entry Y197F): as the sequence (P28221 whole entry V190I) above, with I190V, Y197F counted along it
Chain of S5.42A 5-HT1D receptor (P28221 whole entry S201A): as the sequence (P28221 whole entry V190I) above, with I190V, S201A counted along it
T3 sequence (P28222 whole entry Y208F): as the sequence (P28222 whole entry S212A) above, with Y208F, A212S counted along it
T2 sequence (P28222 whole entry): as the sequence (P28222 whole entry S212A) above, with A212S counted along it
Chain of V45.52I 5-HT1B receptor (P28222 whole entry V201I): as the sequence (P28222 whole entry S212A) above, with V201I, A212S counted along it
T8 sequence (P28221 whole entry): as the sequence (P28221 whole entry V190I) above, with I190V counted along it
Chain of T7.39N 5-HT1B receptor (P28222 whole entry T355N): as the sequence (P28222 whole entry S212A) above, with A212S, T355N counted along it

SMILES	EC50 [1]	higher affinity at 5-HT1B over 5-HT1A receptors [2]	Ki [3]	Ki [4]	Ki [5]	Emax [6, 19]	Ki [7]	Ki [8]	Ki [9]	EC50 [10]	Ki [11]	Ki [12]	Ki [13]	EC50 ([14]; 5-HT1B pEC50, WT receptor)	Emax [14, 20]	EC50 [15]	EC50 [16]	EC50 [17]	Emax [18, 21]	higher functional potency at 5-HT1D over 5-HT1A receptors [18]	also measured
CN(C)[C@H]1CCc2c(cccc2-c2ccccc2F)C1 [(S)-FPT]	14.1 nM	2 fold	1.91 nM	10.7 nM	1.29 nM	90 ± 2%	7.41 nM	1.91 nM	1.29 nM	1.55 nM	1.07 nM	2.57 nM	1.05 nM	0.49 nM	> 90%	1.45 nM	1.48 nM	0.813 nM	103 ± 3%	~80 fold	5-HT1B EMAX (%) ([14]; WT receptor, normalized to basal (0%) and 10 μM 5-CT (100%)): 100 ± 2%
CN(C)[C@H]1CCc2c(cccc2-c2cccc3ccccc23)C1 [(S)-NAP]	10 nM	10 fold	5.62 nM	1.07 nM	0.661 nM	72 ± 4%	6.46 nM	41.7 nM	1.17 nM	11.2 nM	70.8 nM	5.89 nM	37.2 nM	34.7 nM	30 ± 4%	288 nM	257 nM	35.5 nM	90 ± 3%	~40 fold	Ki ([2]; Affinity (pKi ± SD) 5-HT1B, WT receptor, [^3H]5-CT competition, mean ± SD): 4.57 nM; EC50 ([6]; 5-HT1A pEC50, WT receptor): 389 nM; higher functional potency at 5-HT1B over 5-HT1A receptors ([14]; cAMP potency ratio): about 10 fold; EC50 ([18]; 5-HT1D pEC50, WT receptor): 8.71 nM
Fc1ccccc1-c1cccc2c1CC[C@H](N1CCCC1)C2 [(S)-PFPT]	18.6 nM	–	15.1 nM	4.17 nM	41.7 nM	–	5.89 nM	14.5 nM	41.7 nM	240 nM	42.7 nM	102 nM	14.8 nM	–	–	191 nM	58.9 nM	55 nM	–	–	Ki ([2]; read-out: Affinity (pKi ± SD) 5-HT1B (converted)): 12 nM; Emax ([6]; read-out: 5-HT1A EMAX (%)): 100 ± 2%; EC50 ([6]; WT receptor, read-out: 5-HT1A pEC50 (converted)): 1.66 nM; higher functional potency at 5-HT1A over 5-HT1B and 5-HT1D receptors ([6]; cAMP potency ratio): ~40 fold and 35 fold; Emax ([14]; read-out: 5-HT1B EMAX (%)): 99 ± 2%; EC50 ([14]; WT receptor, read-out: 5-HT1B pEC50 (converted)): 56.2 nM; Emax ([18]; read-out: 5-HT1D EMAX (%)): 98 ± 3%; EC50 ([18]; WT receptor, read-out: 5-HT1D pEC50 (converted)): 57.5 nM
